Patent US20030195205A1, “PDE9 inhibitors for treating cardiovascular disorders” (Pfizer Inc., priority 2001, published 2003)
Read-outs that look alike come from different tables or passages of the source.

Molecular target: T1, purified recombinant human PDE9 (Homo sapiens, UniProt O76083)
T1 construct: FLAG; made in house; host or cells: baculovirus/Sf9
Experiment: PDE9 enzyme inhibition scintillation proximity assay ([3H]cGMP hydrolysis)
Format: biochemical
Conditions: for inhibition at 1 µM: 1 μM compound, read-out: inhibition against PDE9 at a concentration of 1 μM
Description: The ability of the compounds of the invention to inhibit the PDE9 enzyme was determined using the following in vitro assay. The assay used purified recombinant human PDE9.
The assay uses [3H]cGMP which is hydrolysed by the PDE9 enzyme to the 5′-nucleotide [3H]GMP. The [3H]GMP binds to yttrium silicate scintillation proximity assay (SPA) beads, and detected by scintillation counting. Inhibition of activity is determined relative to the activity of uninhibited controls.
Phosphodiesterase Scintillation Proximity Assay (SPA) beads (Yttrium Silicate) were obtained from Amersham Biotech.
[^3H]Guanosine 3′,5′-Cyclic Phosphate ([^3H]-cGMP), Ammonium Salt was obtained from Amersham Biotech.
Buffer A was prepared containing Tris.HCl (20 mM), MgCl2.6H2O (5 mM) in water.
Buffer B was prepared containing Bovine Serum Albumin (2 mg/ml) (BSA) in Buffer A. It was prepared fresh and filter sterilised.
PDE9 enzyme solution was prepared in Buffer B (dilution factor determined such that no more than 30% breakdown of substrate occurred, but typically 1:35,000).
SPA beads were prepared by creating a suspension of beads in water (20 mg/ml) (28 ml per pack) containing 3 mM cold cGMP to effectively quench the reaction.
The compounds of the invention were diluted by a factor of 50 (i.e. 2 μl in 100 μl) when constituted in the final assay mix. Compound stock was prepared at 4 mM in DMSO. Dilute 1/8 with DMSO to give 500 μM solutions.
A 4 mM stock of standard inhibitor was prepared in DMSO. The standard inhibitor chosen was 5-(3-bromobenzyl)-3-n-propyl-1,6-dihydro-7H-pyrazolo[4,3-d]pyrimidin-7-one. The solution was further diluted with DMSO to give a 500 μM solution.
Following serial dilution, 2 μl of compound dilutions were dispensed in duplicate into microtitre plates with 2 μl DMSO added to controls as shown below.
To the microtitre plates containing solutions of compounds of the invention (2 μl) was added Buffer A (25 μl) to all wells. Buffer B (25 μl) was added to blank wells. Enzyme solution (25 μl) was added all wells except blanks. Substrate solution (50 μl) was added to each well. The plates were sealed and incubated for 15 minutes on a plate-shaker at 30 °C. SPA bead solution (50 μl) was added (containing excess cGMP) to each well to stop the reaction (Note: yttrium silicate beads are dense and require constant agitation whilst being added to each plate). The plates were shaken for 15 minutes to allow the beads to bind the GMP product and then allowed to settle for 30 minutes.
The plates were then analysed using a scintillation counter (such as the NXT TopCount)TM.
For each compound the percentage inhibition was calculated by the following equation:
(mean maximum−compound value)/(mean maximum−mean minimum)×100
IC50 values were determined from sigmoid dose response curves of enzyme activity vs. compound concentration.

T1 sequence (O76083 whole entry): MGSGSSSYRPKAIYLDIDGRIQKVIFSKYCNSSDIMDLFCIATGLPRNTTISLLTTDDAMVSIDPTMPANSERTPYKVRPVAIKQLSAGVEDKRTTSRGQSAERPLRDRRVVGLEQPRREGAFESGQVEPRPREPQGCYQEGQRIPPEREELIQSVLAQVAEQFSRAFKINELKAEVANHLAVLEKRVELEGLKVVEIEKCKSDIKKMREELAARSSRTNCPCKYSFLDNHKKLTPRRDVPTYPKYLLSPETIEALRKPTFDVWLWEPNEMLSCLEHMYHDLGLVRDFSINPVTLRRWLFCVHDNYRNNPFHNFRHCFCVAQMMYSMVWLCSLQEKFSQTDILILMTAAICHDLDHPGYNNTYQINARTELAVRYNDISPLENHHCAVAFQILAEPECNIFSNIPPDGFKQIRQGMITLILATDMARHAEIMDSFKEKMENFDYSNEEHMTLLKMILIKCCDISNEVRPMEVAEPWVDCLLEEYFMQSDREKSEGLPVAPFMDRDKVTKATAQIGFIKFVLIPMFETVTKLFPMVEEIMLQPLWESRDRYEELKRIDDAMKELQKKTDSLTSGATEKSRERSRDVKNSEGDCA

How did the inhibition at 1 µM turn out when `CC(C)c1n[nH]c2c(=O)[nH]c(Cc3ccccc3Oc3ccccc3)nc12` [Compound 52, 3-isopropyl-5-(2-phenoxybenzyl)-1,6-dihydro-pyrazolo[4,3-d]pyrimidin-7-one] was run?
Its inhibition at 1 µM is > 40%.

And the IC50 (read-out: IC50 against PDE9)?
The IC50 was 126 nM.

With `O=c1[nH]c(Cc2ccccc2OCc2ccccc2)nc2c(-c3cccnc3)n[nH]c12` [Compound 138, 3-(3-pyridinyl)-5-(2-benzyloxybenzyl)-1,6-dihydro-pyrazolo[4,3-d]pyrimidin-7-one] as the compound, how does the inhibition at 1 µM read?
Its inhibition at 1 µM is > 40%.

How did the inhibition at 1 µM turn out when `CC(C)c1n[nH]c2c(=O)[nH]c(Cc3ccccc3OC(F)(F)F)nc12` [Compound 156, 3-isopropyl-5-(2-trifluoromethoxybenzyl)-1,6-dihydro-pyrazolo[4,3-d]pyrimidin-7-one] was run?
The inhibition at 1 µM was > 40%.

`O=c1[nH]c(Cc2ccccc2OCc2ccccc2)nc2c(C3CCCC3)n[nH]c12` [Compound 204, 3-cyclopentyl-5-(2-benzyloxybenzyl)-1,6-dihydro-pyrazolo[4,3-d]pyrimidin-7-one] was tested. Which inhibition at 1 µM did it give?
The inhibition at 1 µM was > 40%.

What about the IC50 (read-out: IC50 against PDE9) of the same compound?
Its IC50 is 143 nM.

For `O=c1[nH]c(Cc2ccccc2OC(F)(F)F)nc2c(C3CCCC3)n[nH]c12` [Compound 256, 3-Cyclopentyl-5-(2-trifluoromethoxybenzyl)-1,6-dihydro-pyrazolo[4,3-d]pyrimidin-7one], which inhibition at 1 µM is on record?
Its inhibition at 1 µM is > 40%.

`O=c1[nH]c(Cc2ccccc2OC(F)(F)F)nc2c(-c3cccnc3)n[nH]c12` [Compound 258] was tested. Which IC50 (read-out: IC50 against PDE9) did it give?
The IC50 was 141 nM.

Which inhibition at 1 µM does the source give for `CC(C)c1c2nc(Cc3cccc(Cl)c3)[nH]c(=O)c2nn1C` [Compound 262, 5-(3-Chlorobenzyl)-3-isopropyl-2-methyl-2,6-dihydro-7H-pyrazolo[4,3-d]pyrimidin-7-one] here?
Its inhibition at 1 µM is > 40%.

With `O=c1[nH]c(Cc2ccccc2OC(F)(F)F)nc2c(-c3ccccc3)n[nH]c12` [Compound 263, 5-(2-Trifluoromethoxybenzyl)-3-phenyl-1,6-dihydro-7H-pyrazolo[4,3-d]pyrimidin-7-one] as the compound, how does the inhibition at 1 µM read?
Its inhibition at 1 µM is > 40%.

How did the IC50 (range the standard inhibitor was expected to fall in, read-out: IC50 of the standard) turn out when `CCCc1n[nH]c2c(=O)[nH]c(Cc3cccc(Br)c3)nc12` [standard, 5-(3-bromobenzyl)-3-n-propyl-1,6-dihydro-7H-pyrazolo[4,3-d]pyrimidin-7-one, reference compound] was run?
Its IC50 is 30 to 50 nM.
